According to patent US20170253607A1, “LONG-ACTING HIV PROTEASE INHIBITOR” (Shionogi & Co., Ltd., priority 2014, published 2017):

target: HIV-1 PR (Human immunodeficiency virus type 1 group M subtype B, UniProt P04585); experiment: HIV-protease inhibitory activity assay (FRET peptide substrate); type: biochemical; conditions: Test Example 1
How it was run: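 Fluorescence recovery at ex 485/em 535 nm reports cleavage of a quenched FRET peptide (2 μmol/L final) by 0.83 ng enzyme over 60 minutes at room temperature. Buffer was NaAc pH 4.8 with NaCl, EDTA, DTT and Tween 20. IC50 values came from four-parameter logistic regression of % inhibition.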

SMILES | IC50 [nM]
COc1ccc(S(=O)(=O)N(CC(C)C)CC(O)C(Cc2ccc(N(C)Cc3cocc3-c3sc4c(c3C(=O)O)CC(C)(C)CC4)cc2)NC(=O)OC2COC3(C)OCCC23)cc1 (centres unmarked) [Compound I-570] | 1.87
COc1ccc(S(=O)(=O)N(CC(C)C)CC(O)C(Cc2ccc(NCc3ccc(Oc4ccc(-c5sc6c(c5C(=O)O)CC(C)(C)CC6)c(C)c4)cc3)cc2)NC(=O)OC2COC3(C)OCCC23)cc1 (centres unmarked) [Compound I-571] | 22.2
COc1ccc(S(=O)(=O)N(CC(C)C)CC(O)C(Cc2ccc(N(C)Cc3ccc(Oc4ccc(-c5sc6c(c5C(=O)O)CC(C)(C)CC6)c(C)c4)cc3)cc2)NC(=O)OC2COC3(C)OCCC23)cc1 (centres unmarked) [Compound I-572] | 30
COc1ccc(S(=O)(=O)N(CC(C)C)CC(O)C(Cc2ccc(N3CCC(c4ccc(-c5sc6c(c5C(=O)O)CC(C)(C)CC6)cc4)C3)cc2)NC(=O)OC2COC3(C)OCCC23)cc1 (centres unmarked) [Compound I-576] | 4.95
COc1ccc(S(=O)(=O)N(CC(C)C)CC(O)C(Cc2ccc(N3CCC(c4ccc(-c5sc6c(c5C(=O)O)CC(C)(C)CC6)cc4)C3)cc2)NC(=O)OC2COC3(C)OCCC23)cc1 (centres unmarked) [Compound I-577] | 6.47
COc1ccc(S(=O)(=O)N(CC(C)C)CC(O)C(Cc2ccc(N(C)Cc3ccccc3NC(=O)c3sc4c(c3C(=O)O)CC(C)(C)CC4)cc2)NC(=O)OC2COC3(C)OCCC23)cc1 (centres unmarked) [Compound I-587] | 1.71
COc1ccc(S(=O)(=O)N(CC(C)C)CC(O)C(Cc2ccc(N(C)Cc3ccccc3C(=O)N(C)c3sc4c(c3C(=O)O)CC(C)(C)CC4)cc2)NC(=O)OC2COC3(C)OCCC23)cc1 (centres unmarked) [Compound I-590] | 2.82
CC(C)CN(CC(O)C(Cc1ccc(NCc2ccccc2C(=O)Nc2sc3c(c2C(=O)O)CC(C)(C)CC3)cc1)NC(=O)OC1COC2(C)OCCC12)S(=O)(=O)c1ccc2c(c1)OCO2 (centres unmarked) [Compound I-591] | 3.16
CC(C)CN(CC(O)C(Cc1ccc(NCc2ccccc2C(=O)Nc2sc3c(c2C(=O)O)CC(C)(C)CC3)cc1)NC(=O)OC1COC2(C)OCCC12)S(=O)(=O)c1ccc2ncsc2c1 (centres unmarked) [Compound I-592] | 3.19
COc1ccc(S(=O)(=O)N(CC(C)C)C[C@@H](O)[C@H](Cc2ccc(NCC(=O)Nc3sc4c(c3C(=O)O)CC(C)(C)CC4)cc2)NC(=O)OC2CO[C@@]3(C)OCC[C@@H]23)cc1 (some centres unmarked) [Compound I-593] | 1.71
COc1ccc(S(=O)(=O)N(CC(C)C)CC(O)C(Cc2ccc(N3CCC(Oc4ccccc4C(=O)Nc4sc5c(c4C(=O)O)CC(C)(C)CC5)C3)cc2)NC(=O)OC2COC3(C)OCCC23)cc1 (centres unmarked) [Compound I-595] | 2.17
COc1ccc(S(=O)(=O)N(CC(C)C)CC(O)C(Cc2ccc(N3CCC(Oc4cccc(-c5sc6c(c5C(=O)O)CC(C)(C)CC6)c4C)C3)cc2)NC(=O)OC2COC3(C)OCCC23)cc1 (centres unmarked) [Compound I-597] | 7.37
COc1ccc(S(=O)(=O)N(CC(C)C)CC(O)C(Cc2ccc(NCC3CCCCN3C(=O)c3sc4c(c3C(=O)O)CC(C)(C)CC4)cc2)NC(=O)OC2COC3(C)OCCC23)cc1 (centres unmarked) [Compound I-604] | 2.19
COc1ccc(S(=O)(=O)N(CC(C)C)CC(O)C(Cc2ccc(NCC3CCCCN3C(=O)c3sc4c(c3C(=O)O)CC(C)(C)CC4)cc2)NC(=O)OC2COC3(C)OCCC23)cc1 (centres unmarked) [Compound I-605] | 1.96
COc1ccc(S(=O)(=O)N(CC(C)C)CC(O)C(Cc2ccc(NCc3cc(C)ccc3NC(=O)c3sc4c(c3C(=O)O)CC(C)(C)CC4)cc2)NC(=O)OC2COC3(C)OCCC23)cc1 (centres unmarked) [Compound I-610] | 2.16
COc1ccc(S(=O)(=O)N(CC(C)C)CC(O)C(Cc2ccc(NCC3CCCCC3NC(=O)c3sc4c(c3C(=O)O)CC(C)(C)CC4)cc2)NC(=O)OC2COC3(C)OCCC23)cc1 (centres unmarked) [Compound I-611] | 1.95

SMILES | IC50 [nM]
COc1ccc(S(=O)(=O)N(CC(C)C)CC(O)C(Cc2ccc(NCc3cc4ccccc4cc3NC(=O)c3sc4c(c3C(=O)O)CC(C)(C)CC4)cc2)NC(=O)OC2COC3(C)OCCC23)cc1 (centres unmarked) [Compound I-612] | 2.11
COc1ccc(S(=O)(=O)N(CC(C)C)CC(O)C(Cc2ccc(NCC3CCCCC3C(=O)Nc3sc4c(c3C(=O)O)CC(C)(C)CC4)cc2)NC(=O)OC2COC3(C)OCCC23)cc1 (centres unmarked) [Compound I-615] | 3.37
COc1ccc(S(=O)(=O)N(CC(C)C)CC(O)C(Cc2ccc(N(C)CC3CCCCC3C(=O)Nc3sc4c(c3C(=O)O)CC(C)(C)CC4)cc2)NC(=O)OC2COC3(C)OCCC23)cc1 (centres unmarked) [Compound I-616] | 4.2
COc1ccc(S(=O)(=O)N(CC(C)C)CC(O)C(Cc2ccc(NCCOc3ccccc3-c3sc4c(c3C(=O)O)CC(C)(C)CC4)cc2)NC(=O)OC2COC3(C)OCCC23)cc1 (centres unmarked) [Compound I-619] | 2.48
COc1ccc(S(=O)(=O)N(CC(C)C)CC(O)C(Cc2ccc(N3C(=O)c4cccc(-c5sc6c(c5C(=O)O)CC(C)(C)CC6)c4C3=O)cc2)NC(=O)OC2COC3(C)OCCC23)cc1 (centres unmarked) [Compound I-620] | 2.22
COc1ccc(S(=O)(=O)N(CC(C)C)CC(O)C(Cc2ccc(N3C(=O)c4ccc(-c5sc6c(c5C(=O)O)CC(C)(C)CC6)cc4C3=O)cc2)NC(=O)OC2COC3(C)OCCC23)cc1 (centres unmarked) [Compound I-621] | 1.84
COc1ccc(S(=O)(=O)N(CC(C)C)CC(O)C(Cc2ccc(N(C)CC3CCCCC3C(=O)Nc3sc4c(c3C(=O)O)CC(C)(C)CC4)cc2)NC(=O)OC2COC3(C)OCCC23)cc1 (centres unmarked) [Compound I-622] | 3.71
COc1ccc(S(=O)(=O)N(CC(C)C)CC(O)C(Cc2ccc(NCC3=C(c4sc5c(c4C(=O)O)CC(C)(C)CC5)C4CC(C3)C4(C)C)cc2)NC(=O)OC2COC3(C)OCCC23)cc1 (centres unmarked) [Compound I-626] | 4.58
COc1ccc(S(=O)(=O)N(CC(C)C)CC(O)C(Cc2ccc(N(C)CC3=C(c4sc5c(c4C(=O)O)CC(C)(C)CC5)C4CC(C3)C4(C)C)cc2)NC(=O)OC2COC3(C)OCCC23)cc1 (centres unmarked) [Compound I-628] | 5.03
COc1ccc(S(=O)(=O)N(CC(C)C)CC(O)C(Cc2ccc(N(C)CC3CCCCC3C(=O)Nc3sc4c(c3C(=O)O)CC(C)(C)CC4)cc2)NC(=O)OC2COC3(C)OCCC23)cc1 (centres unmarked) [Compound I-629] | 2.35
COc1ccc(S(=O)(=O)N(CC(C)C)CC(O)C(Cc2ccc(NCc3ccccc3-c3c(C(=O)O)[nH]c4cc(Cl)cc(Cl)c34)cc2)NC(=O)OC2COC3(C)OCCC23)cc1 (centres unmarked) [Compound I-633] | 2.48
COc1ccc(S(=O)(=O)N(CC(C)C)CC(O)C(Cc2ccc(NCc3ccccc3-c3c(C(=O)O)[nH]c4cc(OC)ccc34)cc2)NC(=O)OC2COC3(C)OCCC23)cc1 (centres unmarked) [Compound I-634] | 2.26
COc1ccc(S(=O)(=O)N(CC(C)C)CC(O)C(Cc2ccc(NCc3ccccc3-c3c(C(=O)O)n(Cc4ccccc4)c4ccc(OC)cc34)cc2)NC(=O)OC2COC3(C)OCCC23)cc1 (centres unmarked) [Compound I-635] | 2.1
COc1ccc(S(=O)(=O)N(CC(C)C)CC(O)C(Cc2ccc(N3CCC(C(=O)Nc4sc5c(c4C(=O)O)CC(C)(C)CC5)C3)cc2)NC(=O)OC2COC3(C)OCCC23)cc1 (centres unmarked) [Compound I-645] | 2.51
COc1ccc(S(=O)(=O)N(CC(C)C)CC(O)C(Cc2ccc(N3CCC(C(=O)N(C)c4sc5c(c4C(=O)O)CC(C)(C)CC5)C3)cc2)NC(=O)OC2COC3(C)OCCC23)cc1 (centres unmarked) [Compound I-646] | 2.92
COc1ccc(S(=O)(=O)N(CC(C)C)CC(O)C(Cc2ccc(N(C)CCOc3ccccc3-c3sc4c(c3C(=O)O)CC(C)(C)CC4)cc2)NC(=O)OC2COC3(C)OCCC23)cc1 (centres unmarked) [Compound I-647] | 2.59
